In the kinase profiling compilation of Christmann-Franck et al. (2016):

Assays:
Assay in all cases: radiometric filter-binding kinase assay, Kinase HotSpot
Details in all cases: compound 0.5 µM; ATP 10 µM
ABL2 (human) = ABL2 (human) (UniProt P42684)
CHUK (human) = CHUK (human) (UniProt O15111)
CAMK2A (human) = CAMK2A (human) (UniProt Q9UQM7)
TSSK1B (human) = TSSK1B (human) (UniProt Q9BXA7)
GRK4 (human) = GRK4 (human) (UniProt P32298)
PRKCB2 (human) = PRKCB2 (human) (UniProt P05771)
EPHA5 (human) = EPHA5 (human) (UniProt P54756)
NEK6 (human) = NEK6 (human) (UniProt Q9HC98)
Sequence of NEK6 (human) (Q9HC98 whole entry, looked up): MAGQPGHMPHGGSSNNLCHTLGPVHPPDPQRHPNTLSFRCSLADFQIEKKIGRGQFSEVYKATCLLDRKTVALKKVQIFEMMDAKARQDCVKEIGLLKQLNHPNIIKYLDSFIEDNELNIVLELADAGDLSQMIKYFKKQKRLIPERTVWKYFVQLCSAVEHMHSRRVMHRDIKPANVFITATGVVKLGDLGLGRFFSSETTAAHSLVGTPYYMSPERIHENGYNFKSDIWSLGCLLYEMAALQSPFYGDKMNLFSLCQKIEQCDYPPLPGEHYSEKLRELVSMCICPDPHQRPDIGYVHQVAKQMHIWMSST

KIT (human) = KIT (human) (UniProt P10721)
PRKG2 (human) = PRKG2 (human) (UniProt Q13237)
Sequence of PRKG2 (human) (Q13237 whole entry, looked up): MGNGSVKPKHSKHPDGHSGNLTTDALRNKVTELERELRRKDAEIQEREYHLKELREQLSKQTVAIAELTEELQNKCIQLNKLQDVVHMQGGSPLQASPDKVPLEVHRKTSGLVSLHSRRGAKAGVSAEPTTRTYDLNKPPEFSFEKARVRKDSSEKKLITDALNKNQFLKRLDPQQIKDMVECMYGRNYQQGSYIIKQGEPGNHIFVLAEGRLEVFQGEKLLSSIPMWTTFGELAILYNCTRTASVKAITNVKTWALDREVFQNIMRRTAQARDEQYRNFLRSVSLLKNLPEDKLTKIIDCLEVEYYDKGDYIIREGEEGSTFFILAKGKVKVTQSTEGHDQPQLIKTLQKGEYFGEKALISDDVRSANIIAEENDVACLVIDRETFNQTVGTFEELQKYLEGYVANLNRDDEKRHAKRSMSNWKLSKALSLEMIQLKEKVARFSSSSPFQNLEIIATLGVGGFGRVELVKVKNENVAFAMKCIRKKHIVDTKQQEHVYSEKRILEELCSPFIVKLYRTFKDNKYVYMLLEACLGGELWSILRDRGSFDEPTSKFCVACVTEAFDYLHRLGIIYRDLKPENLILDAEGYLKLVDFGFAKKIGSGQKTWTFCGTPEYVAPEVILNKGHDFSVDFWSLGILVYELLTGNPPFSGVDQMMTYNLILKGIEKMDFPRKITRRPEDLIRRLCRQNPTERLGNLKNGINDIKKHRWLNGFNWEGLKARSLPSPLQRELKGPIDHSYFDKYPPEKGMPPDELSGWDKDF

MAPKAPK5 (human) = MAPKAPK5 (human) (UniProt Q8IW41)
Sequence of MAPKAPK5 (human) (Q8IW41 whole entry, looked up): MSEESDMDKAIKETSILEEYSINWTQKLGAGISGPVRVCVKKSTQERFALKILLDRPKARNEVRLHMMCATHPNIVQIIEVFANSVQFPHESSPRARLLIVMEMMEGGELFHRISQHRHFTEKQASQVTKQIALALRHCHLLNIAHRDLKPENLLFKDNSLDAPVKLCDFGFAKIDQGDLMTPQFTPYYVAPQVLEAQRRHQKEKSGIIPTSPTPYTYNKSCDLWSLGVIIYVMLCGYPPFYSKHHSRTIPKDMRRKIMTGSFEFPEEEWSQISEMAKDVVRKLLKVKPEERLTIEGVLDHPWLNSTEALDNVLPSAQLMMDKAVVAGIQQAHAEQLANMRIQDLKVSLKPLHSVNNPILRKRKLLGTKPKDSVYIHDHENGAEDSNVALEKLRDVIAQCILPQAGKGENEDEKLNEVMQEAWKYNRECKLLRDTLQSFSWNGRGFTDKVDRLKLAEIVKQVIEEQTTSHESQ

PAK6 (human) = PAK6 (human) (UniProt Q9NQU5)
PRKCI (human) = PRKCI (human) (UniProt P41743)
Sequence of PRKCI (human) (P41743 whole entry, looked up): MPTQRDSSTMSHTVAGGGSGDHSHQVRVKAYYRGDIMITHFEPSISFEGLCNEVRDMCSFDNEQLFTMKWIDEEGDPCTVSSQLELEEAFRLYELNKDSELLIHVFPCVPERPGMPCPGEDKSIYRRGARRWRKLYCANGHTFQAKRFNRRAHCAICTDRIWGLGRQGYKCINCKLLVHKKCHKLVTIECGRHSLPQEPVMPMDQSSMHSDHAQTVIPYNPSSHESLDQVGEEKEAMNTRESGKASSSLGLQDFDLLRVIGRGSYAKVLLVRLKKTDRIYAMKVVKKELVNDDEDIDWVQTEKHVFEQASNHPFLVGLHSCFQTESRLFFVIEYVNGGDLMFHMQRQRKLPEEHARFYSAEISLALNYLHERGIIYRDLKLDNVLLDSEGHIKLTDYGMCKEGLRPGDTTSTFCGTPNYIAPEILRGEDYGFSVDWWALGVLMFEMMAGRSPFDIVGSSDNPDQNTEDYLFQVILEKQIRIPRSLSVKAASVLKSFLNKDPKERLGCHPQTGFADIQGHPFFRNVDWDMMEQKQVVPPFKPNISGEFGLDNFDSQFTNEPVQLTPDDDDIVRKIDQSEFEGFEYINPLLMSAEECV

MAPK10 (human) = MAPK10 (human) (UniProt P53779)
Sequence of MAPK10 (human) (P53779 whole entry, looked up): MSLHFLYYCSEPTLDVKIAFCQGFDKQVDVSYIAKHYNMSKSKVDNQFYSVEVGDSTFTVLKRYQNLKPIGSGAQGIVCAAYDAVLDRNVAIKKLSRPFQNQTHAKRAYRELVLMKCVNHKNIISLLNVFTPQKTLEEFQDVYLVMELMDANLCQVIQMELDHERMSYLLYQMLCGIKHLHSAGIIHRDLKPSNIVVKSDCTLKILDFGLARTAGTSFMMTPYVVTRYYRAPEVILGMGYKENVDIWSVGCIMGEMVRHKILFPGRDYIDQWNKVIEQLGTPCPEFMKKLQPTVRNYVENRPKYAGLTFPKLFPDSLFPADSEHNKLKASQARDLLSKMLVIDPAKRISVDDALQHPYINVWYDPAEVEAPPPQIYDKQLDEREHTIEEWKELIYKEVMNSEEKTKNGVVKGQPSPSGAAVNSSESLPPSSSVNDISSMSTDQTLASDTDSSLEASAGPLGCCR

CAMK4 (human) = CAMK4 (human) (UniProt Q16566)
MAP3K10 (human) = MAP3K10 (human) (UniProt Q02779)
MAP4K2 (human) = MAP4K2 (human) (UniProt Q12851)
IGF1R (human) = IGF1R (human) (UniProt P08069)
ACVRL1 (human) = ACVRL1 (human) (UniProt P37023)
AKT2 (human) = AKT2 (human) (UniProt P31751)
CDK1 CCNA2 (human) = CDK1 CCNA2 (human) (UniProt P06493+P20248)
MINK1 (human) = MINK1 (human) (UniProt Q8N4C8)
CDK2 CCNA2 (human) = CDK2 CCNA2 (human) (UniProt P24941+P20248)
MKNK2 (human) = MKNK2 (human) (UniProt Q9HBH9)
HIPK2 (human) = HIPK2 (human) (UniProt Q9H2X6)
Sequence of HIPK2 (human) (Q9H2X6 whole entry, looked up): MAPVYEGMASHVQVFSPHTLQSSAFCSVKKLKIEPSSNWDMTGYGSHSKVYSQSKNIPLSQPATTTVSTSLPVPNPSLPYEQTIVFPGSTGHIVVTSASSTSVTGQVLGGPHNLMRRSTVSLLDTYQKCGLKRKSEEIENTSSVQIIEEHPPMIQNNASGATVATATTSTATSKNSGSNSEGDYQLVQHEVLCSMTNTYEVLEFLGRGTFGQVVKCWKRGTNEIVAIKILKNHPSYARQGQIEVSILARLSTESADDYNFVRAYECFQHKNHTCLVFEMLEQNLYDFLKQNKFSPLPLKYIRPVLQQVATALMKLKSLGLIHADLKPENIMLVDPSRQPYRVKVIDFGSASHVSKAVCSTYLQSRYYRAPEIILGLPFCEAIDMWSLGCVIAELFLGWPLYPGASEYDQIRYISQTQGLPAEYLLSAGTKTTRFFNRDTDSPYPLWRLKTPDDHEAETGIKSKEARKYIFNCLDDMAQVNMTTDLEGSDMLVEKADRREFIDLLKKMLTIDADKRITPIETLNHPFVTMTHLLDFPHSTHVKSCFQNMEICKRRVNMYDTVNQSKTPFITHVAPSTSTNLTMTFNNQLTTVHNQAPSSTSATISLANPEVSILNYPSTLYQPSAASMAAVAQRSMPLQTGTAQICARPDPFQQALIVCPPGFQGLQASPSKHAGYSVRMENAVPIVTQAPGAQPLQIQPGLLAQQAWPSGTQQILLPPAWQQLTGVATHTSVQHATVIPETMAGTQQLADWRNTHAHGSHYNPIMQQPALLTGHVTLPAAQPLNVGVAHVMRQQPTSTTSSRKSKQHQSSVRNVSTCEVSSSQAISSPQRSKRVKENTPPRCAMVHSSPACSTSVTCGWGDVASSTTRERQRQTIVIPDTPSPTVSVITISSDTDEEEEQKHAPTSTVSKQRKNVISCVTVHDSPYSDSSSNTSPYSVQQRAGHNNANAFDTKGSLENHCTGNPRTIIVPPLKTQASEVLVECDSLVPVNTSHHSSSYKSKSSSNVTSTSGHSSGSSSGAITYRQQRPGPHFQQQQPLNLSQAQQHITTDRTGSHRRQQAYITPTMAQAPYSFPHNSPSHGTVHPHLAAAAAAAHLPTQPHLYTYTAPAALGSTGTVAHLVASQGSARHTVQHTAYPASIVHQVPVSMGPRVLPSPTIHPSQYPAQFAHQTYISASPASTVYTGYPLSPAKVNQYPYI

TGFBR1 (human) = TGFBR1 (human) (UniProt P36897)
CDK7 CCNH MNAT1 (human) = CDK7 CCNH MNAT1 (human) (UniProt P50613+P51948+P51946)
NEK3 (human) = NEK3 (human) (UniProt P51956)
MAPK1 (human) = MAPK1 (human) (UniProt P28482)
MELK (human) = MELK (human) (UniProt Q14680)
GRK5 (human) = GRK5 (human) (UniProt P34947)
CDK2 CCNE1 (human) = CDK2 CCNE1 (human) (UniProt P24941+P24864)
PRKD2 (human) = PRKD2 (human) (UniProt Q9BZL6)
CSNK1G1 (human) = CSNK1G1 (human) (UniProt Q9HCP0)
NTRK2 (human) = NTRK2 (human) (UniProt Q16620)
BTK (human) = BTK (human) (UniProt Q06187)
CAMK1 (human) = CAMK1 (human) (UniProt Q14012)
DYRK3 (human) = DYRK3 (human) (UniProt O43781)
STK33 (human) = STK33 (human) (UniProt Q9BYT3)
PDPK1 (human) = PDPK1 (human) (UniProt O15530)
Sequence of PDPK1 (human) (O15530 whole entry, looked up): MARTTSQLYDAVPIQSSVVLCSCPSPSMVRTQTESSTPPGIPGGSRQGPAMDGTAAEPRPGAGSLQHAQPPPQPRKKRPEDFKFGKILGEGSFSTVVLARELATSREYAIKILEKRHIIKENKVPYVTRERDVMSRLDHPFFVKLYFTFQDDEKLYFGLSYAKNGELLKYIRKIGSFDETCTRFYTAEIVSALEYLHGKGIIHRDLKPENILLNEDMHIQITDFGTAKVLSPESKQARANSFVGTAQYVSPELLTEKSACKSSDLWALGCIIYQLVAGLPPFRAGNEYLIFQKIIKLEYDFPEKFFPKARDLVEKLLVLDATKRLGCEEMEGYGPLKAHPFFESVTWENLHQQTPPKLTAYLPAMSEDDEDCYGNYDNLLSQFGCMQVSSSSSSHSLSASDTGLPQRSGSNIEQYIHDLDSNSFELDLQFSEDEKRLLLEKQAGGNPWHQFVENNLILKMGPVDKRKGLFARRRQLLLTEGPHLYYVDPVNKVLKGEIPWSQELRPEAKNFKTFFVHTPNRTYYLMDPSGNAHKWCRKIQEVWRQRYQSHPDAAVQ

SRPK3 (human) = SRPK3 (human) (UniProt Q9UPE1)
SRPK2 (human) = SRPK2 (human) (UniProt P78362)

Sequence of PRKCB2 (human) (P05771 whole entry, looked up): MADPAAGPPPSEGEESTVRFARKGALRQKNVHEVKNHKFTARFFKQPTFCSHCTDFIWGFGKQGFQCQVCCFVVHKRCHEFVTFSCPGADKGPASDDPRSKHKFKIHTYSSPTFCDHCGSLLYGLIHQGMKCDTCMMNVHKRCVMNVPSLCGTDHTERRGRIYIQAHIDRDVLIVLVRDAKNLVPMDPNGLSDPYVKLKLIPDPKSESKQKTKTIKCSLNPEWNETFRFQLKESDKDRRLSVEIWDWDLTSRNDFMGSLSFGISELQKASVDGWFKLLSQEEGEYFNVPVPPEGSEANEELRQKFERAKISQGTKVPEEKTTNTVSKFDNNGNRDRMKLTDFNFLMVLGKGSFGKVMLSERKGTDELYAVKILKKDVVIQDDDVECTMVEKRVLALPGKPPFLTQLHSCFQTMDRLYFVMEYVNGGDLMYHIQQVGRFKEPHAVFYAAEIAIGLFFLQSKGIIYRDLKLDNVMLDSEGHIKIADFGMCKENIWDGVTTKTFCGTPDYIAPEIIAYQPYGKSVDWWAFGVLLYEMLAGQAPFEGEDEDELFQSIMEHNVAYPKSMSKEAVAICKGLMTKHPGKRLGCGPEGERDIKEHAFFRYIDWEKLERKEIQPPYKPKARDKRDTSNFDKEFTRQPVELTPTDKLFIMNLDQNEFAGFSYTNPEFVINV

## NC(=O)c1ccc(N(C(N)=O)c2c(F)cccc2F)nc1-c1ccc(F)cc1F
ABL2 (human)
  residual activity: 100%
CHUK (human)
  residual activity: 100%
CAMK2A (human)
  residual activity: 90.9%
TSSK1B (human)
  residual activity: 83%
GRK4 (human)
  residual activity: 90.7%
PRKCB2 (human)
  residual activity: 94.6%
EPHA5 (human)
  residual activity: 105%
NEK6 (human)
  residual activity: 90.5%
KIT (human)
  residual activity: 97.7%
PRKG2 (human)
  residual activity: 98.1%
MAPKAPK5 (human)
  residual activity: 93.4%
PAK6 (human)
  residual activity: 103%
PRKCI (human)
  residual activity: 99.1%
MAPK10 (human)
  residual activity: 98.4%
CAMK4 (human)
  residual activity: 91.9%
MAP3K10 (human)
  residual activity: 104%
MAP4K2 (human)
  residual activity: 108%
IGF1R (human)
  residual activity: 92.3%
ACVRL1 (human)
  residual activity: 99.3%
AKT2 (human)
  residual activity: 118%
CDK1 CCNA2 (human)
  residual activity: 101%
MINK1 (human)
  residual activity: 100%
CDK2 CCNA2 (human)
  residual activity: 87.8%
MKNK2 (human)
  residual activity: 101%
HIPK2 (human)
  residual activity: 100%
TGFBR1 (human)
  residual activity: 96.7%
CDK7 CCNH MNAT1 (human)
  residual activity: 102%
NEK3 (human)
  residual activity: 96%
MAPK1 (human)
  residual activity: 85.7%
MELK (human)
  residual activity: 87.1%
GRK5 (human)
  residual activity: 103%
CDK2 CCNE1 (human)
  residual activity: 93.1%
PRKD2 (human)
  residual activity: 81.8%
CSNK1G1 (human)
  residual activity: 102%
NTRK2 (human)
  residual activity: 102%
BTK (human)
  residual activity: 98.2%
CAMK1 (human)
  residual activity: 98.1%
DYRK3 (human)
  residual activity: 105%
STK33 (human)
  residual activity: 94%
PDPK1 (human)
  residual activity: 87.4%
SRPK3 (human)
  residual activity: 105%

## O=C(Nc1ccc(Cl)cc1)c1ccccc1NCc1ccncc1
ABL2 (human)
  residual activity: 93.4%
CHUK (human)
  residual activity: 104%
CAMK2A (human)
  residual activity: 99.9%
TSSK1B (human)
  residual activity: 103%
GRK4 (human)
  residual activity: 96.8%
PRKCB2 (human)
  residual activity: 93.3%
EPHA5 (human)
  residual activity: 82.1%
NEK6 (human)
  residual activity: 97.1%
KIT (human)
  residual activity: 33.6%
PRKG2 (human)
  residual activity: 99.1%
MAPKAPK5 (human)
  residual activity: 88.7%
PAK6 (human)
  residual activity: 101%
PRKCI (human)
  residual activity: 98.7%
MAPK10 (human)
  residual activity: 89.9%
CAMK4 (human)
  residual activity: 101%
MAP3K10 (human)
  residual activity: 104%
MAP4K2 (human)
  residual activity: 97.3%
ACVRL1 (human)
  residual activity: 98.9%
AKT2 (human)
  residual activity: 95.2%
CDK1 CCNA2 (human)
  residual activity: 91.8%
MINK1 (human)
  residual activity: 96.9%
SRPK2 (human)
  residual activity: 85.1%
CDK2 CCNA2 (human)
  residual activity: 92.2%
MKNK2 (human)
  residual activity: 82.3%
HIPK2 (human)
  residual activity: 93%
TGFBR1 (human)
  residual activity: 100%
CDK7 CCNH MNAT1 (human)
  residual activity: 95.1%
NEK3 (human)
  residual activity: 90.5%
MAPK1 (human)
  residual activity: 94.7%
MELK (human)
  residual activity: 92.3%
GRK5 (human)
  residual activity: 97.3%
CDK2 CCNE1 (human)
  residual activity: 94.3%
PRKD2 (human)
  residual activity: 98%
CSNK1G1 (human)
  residual activity: 110%
NTRK2 (human)
  residual activity: 102%
BTK (human)
  residual activity: 98.9%
CAMK1 (human)
  residual activity: 103%
DYRK3 (human)
  residual activity: 104%
STK33 (human)
  residual activity: 86.4%
PDPK1 (human)
  residual activity: 95.3%
SRPK3 (human)
  residual activity: 100%
